Test results taken from patent US11360104B2, “Microbial-based biosensors” (TRUSTEES OF BOSTON UNIVERSITY, priority 2017, dated 2022).
Like-named read-outs stand apart in the source and are kept apart here.

Experiments:
PinR = PinR (Nocardioides simplex (Pimelobacter simplex), UniProt A0A0A1DUF2); assay: Cross-reactivity assay of steroids using sensor 3; type: biochemical; conditions: for % cross-reactivity: relative to progesterone; for % cross-reactivity / P (slope of fit): sensor 3, HEPES 1×
Protocol: The cross-reactivity of progesterone regarding the different steroids was calculated with the following equation:
Description for a typical experiment, using a molar ratio of QD/TF/DNA=1/4/18.
50 uL of the sensor (QD/TF/DNA) was then splitted in 3×9 centrifuge tubes to which 10 uL of progesterone at the desired concentration is added. […] A 384 well plate was filled with 60 uL of each solution. The fluorescence intensity was monitored on a spectrofluorimeter from 535 nm to 800 nm exciting at 400 nm, equipped with a 450 nm long-pass filter in emission.

[1] = tested on: steroid responsive genome island (SRGI); assay: Whole transcriptome RNA-Seq of steroid treated P. simplex; type: cell-based, Pimelobacter simplex; conditions: P. simplex exposed to steroid vs solvent control, Log2 fold change
Text: (§1) In order to identify steroid binding Transcription Factors, a whole transcriptome RNA sequencing (RNA-Seq) screen was developed (FIG. 7). The growth of Pimelobacter simplex bacteria was profiled with respect to the starting inoculation density, solvent toxicity, and the addition of steroids (FIG. 16). […] P. simplex bacteria were screened against the steroid solvents ethanol (EtOH) and dimethyl sulfoxide (DMSO). […] Steroid growth curves were similarly performed using a starting OD of 0.005 and constant solvent dosing with titrations of steroids. […] P. simplex bacteria were grown in the presence of 700 μM testosterone, 21.88 μM progesterone, 87.50 μM estrone, 21.88 μM 17β-estradiol, 21.88 μM hydrocortisone, or 175.00 μM aldosterone concentrations were selected for comparison.
(§2) Using accession gene tags, genes were annotated for steroid relevant enzymes or transcription factors. […] Allosteric TF binding sequences are often palindromes and typically located near the start of its gene location in an intergenic space. With such a design, the allosteric TF can regulate itself or the open reading frame (ORF) near it in response to its effector molecule. […] Once identified, the TFs were cloned and recombinantly expressed for thorough characterization.
(§3) Cells were grown in 6 mL volumes of media at the OD, solvent, and steroid concentrations found from the growth curves in 14 mL polypropylene round-bottom tubes (Corning #352059) in technical duplicate. The same controls as in the steroid exposure growth curve were used for setting up RNA extraction samples. The cells were incubated at their corresponding temperature with continuous orbital shaking at 150 rpm until the end of lag-phase, mid-log phase, or stationary phase from the start of inoculation. Afterward, samples were removed and a 1:1 ratio of RNAprotect Bacteria Reagent (Qiagen #76506) was added followed by spinning down at 4° C. for 10 minutes at 4000 g. Supernatant was removed and the pellet re-suspended in 300 μL of RNAprotect and transferred into 2.0 mL Safe-Lock Tubes (Eppendorf #3101). The samples were then spun down once again at 4° C. for 10 minutes at 10000 g. Once the supernatant has been removed the samples were placed on ice and ready for RNA extraction. RNA extraction was done by Qiacube (Qiagen #9001292) set to the RNeasy Protect Bacteria Mini Kit protocol of bacterial cell pellet with enzymatic lysis. Tube A was prepared as described except with the addition of 150 mg/mL lysozyme (Sigma-Aldrich #L6876) and 20 mg/mL proteinase K (Roche #03115879001) all diluted in 1xTE buffer. RNA samples were subsequently quantified using Qubit RNA HS Assay Kit (Thermo Fisher Scientific #Q32852) and analyzed using a RNA 6000 Pico Kit (Agilent 5067-1513) in a 2100 Bioanalyzer (Agilent G2939A). RNA samples were either immediately used for RNA-Seq library preparation or stored long-term at −80° C.
(§4) RNA-Seq libraries were then produced from these samples using a slightly modified ScriptSeq v2 RNA-Seq Library Preparation Kit (Illumina 455A/22124) ensuring use of unique index primers through ScriptSeq Index PCR Primers (Sets 1-4) 48 rxns/set (Illumina #SSIP1234).

Pimelobacter simplex = assay: Solvent and steroid exposure growth curves
Text: as §1
In order to properly determine the doubling time of the strain, growth curves were performed. All growth curves were done in 100 μL per well volumes in 96 well flat clear bottom black polystyrene TC-treated microplates which were individually wrapped with a lid and sterile (Corning #3603). Measurements were done by an Infinite M200 Pro (TECAN) spectrophotometer at the temperature suited for P. simplex. Readings were performed over 96 cycles of 15 minutes each at 600 nm absorbance with 25 flashes in a 3×3 (XY-Line) type reads per well. In between reads there was orbital shaking at 150 rpm frequency for a total of 10 minutes. In order to characterize the growth alone, a ½ serial dilution of 9 concentrations from 0.5-0.0020 OD600 nm were prepared in the respective media. Then each concentration was measured as previously described using a microplate reader (TECAN) and normalized against a media background control in technical triplicate. Afterward, an appropriate starting concentration of cells was chosen with a substantially long lag-phase, linear log phase, and a plateau of stationary-phase.
Once an appropriate starting cell concentration was chosen, a secondary growth curve was performed to test the toxicity levels of the solvents used to dissolve steroids of interest. Since the steroids used are heavily hydrophobic, they often need to be dissolved in organic solvents such as DMSO or ethanol which are toxic to bacteria at high concentrations. P. simplex was incubated under microplate reader conditions previously mentioned at a starting OD determined by the first growth curve with DMSO, ethanol, or H2O at ½ serial dilutions for a total of eight concentrations (50-0.39%) tested in technical triplicate. Two controls were included per solvent; a positive control without solvent and a media control which allowed for appropriate normalization. Solvent exposure growth curves allowed for choosing the maximum amount of solvent concentration that strains would sustain while maintaining relative viability in order to determine a range of steroid concentrations which could be used.
A tertiary growth curve was performed to test the toxicity levels of steroid specific to P. simplex. The strain was incubated under microplate reader conditions previously mentioned at a starting OD determined by the first growth curve and the highest solvent concentration corresponding to the steroid of interest with steroid at ½ serial dilutions for a total of seven concentrations tested in singlet. Testosterone, progesterone, 17β-estradiol, hydrocortisone, and aldosterone were all dissolved in ethanol while estrone was dissolved in DMSO. Three controls were included for each steroid; a positive control with the highest tolerable solvent concentration (%), a positive control with media, and a media control which allowed for normalization. Steroid exposure growth curves allowed for choosing the maximum amount of steroid concentration that P. simplex would sustain while maintaining relative viability.

[2] = tested on: P. simplex bacteria (steroid responsive genome island, SRGI); assay: RNA-Seq screen of steroid treated P. simplex against solvent controls; type: cell-based, Pimelobacter simplex; conditions: Log2 fold change vs solvent control
Text: as §1, §2, §3, §4

[3] = tested on: Pimelobacter simplex PinR (AIY20223.2; SEQ ID NO: 1), his-tagged (AIY-his6); assay: QD-FRET steroid sensor (QD-PinR + DNA-Cy5), steroid-induced TF-DNA unbinding; type: biochemical
Protocol: Fluorescent spectra were analyzed using MATLAB (Mathworks) and were fitted with a sum of 2 Gaussians (D=QD: FWHM=27 nm, λmax=607 nm; A=DNA-Cy5: FWHM=40 nm, λmax=669 nm). The area of each Gaussian was extracted and FD and FA are obtained respectively for the fluorescence of QD (donor) and Cy5 (acceptor).
Raw dose-response curves were obtained by plotting FA/FD as a function of the steroid concentration. Sensor output is the normalization of the fluorescent spectra of the donor and acceptor according to the following equation: […]
Non-normalized dose-response were fitted with Origin Pro 8 software with the non-linear equation: […]
The cross-reactivity of progesterone regarding the different steroids was calculated with the following equation: […]
CdSe/CdS/ZnS QDs were coated with a zwitterionic polymer bearing histamine anchoring functions (P1, SI). Once the hydrophobic QDs were transferred into H2O using a biphasic ligand exchange, his-tagged TFs were self-assembled on the QD surface to produce the QD-TF. Addition of the double stranded, Cy5-labeled TF-binding sequence completed probe assembly as the oligo binds to the TF in the absence of progesterone (PRG). The molar ratios of the QD, TF, and DNA in the sensor were controlled through the stoichiometric ratios of the mixed parts.
Two fluorescent spectra were recorded, one from the QDs and one from the Cy5 due to the FRET.
First, the DNA1 (most binding sequence) has been used to build the first biosensor, named sensor 1. For this sensor, a ratio of QD/TF/DNA of 1/4/18 was chosen. […] In order to homogenize the fluorescent signals in between batches and different sensor variations, FA/FD was normalized to give the signal output. Signal output is then plotted against PRG concentration to give a dose-response curve (FIG. 9C) This curve was fitted with the non-linear equation XX to obtain the half-maximal inhibitory concentration (IC50) (Table 13).
Description for a typical experiment, using a molar ratio of QD/TF/DNA=1/4/18. QDs in (275 uL, 0.15 uM in HEPES 1×, pH 7.6 with 1% BSA) were mixed with AIY-his6 (275 uL, 0.6 uM in HEPES 1× pH 7.6) at room temperature for 45 min. Then, the double-stranded DNA labelled with a Cy5 fluorescent probe at the 3′ and 5′ ends (275 uL, 2.7 uM in HEPES 1× pH 7.6) was added to the mixture. After 30 min, 220 uL of HEPES 1× pH 7.5 and 330 uL of 5× binding buffer (25 mM MgCl2, 25% glycerol, and 250 mg/L Invitrogen™ UltraPure™ Salmon Sperm DNA in Tris-HCl 0.1M) were added and the mixture is left 15 more min at RT.
50 uL of the sensor (QD/TF/DNA) was then splitted in 3×9 centrifuge tubes to which 10 uL of progesterone at the desired concentration is added. As such, the final concentration of QD/TF/DNA for the measurements is 25 nM/100 nM/450 nM. A 384 well plate was filled with 60 uL of each solution. The fluorescence intensity was monitored on a spectrofluorimeter from 535 nm to 800 nm exciting at 400 nm, equipped with a 450 nm long-pass filter in emission.

[4] = P. simplex, starting OD 0.005, constant solvent

Chain of PinR (A0A0A1DUF2 entry or part of it): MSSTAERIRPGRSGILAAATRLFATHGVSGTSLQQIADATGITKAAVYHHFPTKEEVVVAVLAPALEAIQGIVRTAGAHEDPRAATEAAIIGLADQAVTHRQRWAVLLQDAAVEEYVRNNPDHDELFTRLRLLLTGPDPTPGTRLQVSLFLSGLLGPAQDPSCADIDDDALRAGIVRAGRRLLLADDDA

Row | SMILES | IC50 (PinR) [nM] | % cross-reactivity (PinR) [%] | P (slope of fit) (PinR) | upregulation of genes inside the SRGI [1] | highest steroid concentration exhibiting normal growth profile (Pimelobacter simplex) [µM] | upregulation of genes inside the SRGI (in words) [2] | highest steroid concentration exhibiting normal growth profile (Pimelobacter simplex; [4]) [µM] | cross-reactivity (in words) ([3]; sensor 3 in HEPES 1×, 0 to 10 uM steroid) | effect on sensor binding/unbinding (in words) ([3]; QD:TF:oligo 1:4:6, [QD]=50 nM)
1 | C[C@]12CCC(=O)C=C1CC[C@@H]1[C@@H]2[C@@H](O)C[C@@]2(C)[C@H]1CC[C@]2(O)C(=O)CO [CRT, Hydrocortisone] | 180 ± 19 | 33 ± 3 | 1.23 ± 0.13 | observed | 21.88 | upregulation of genes inside the SRGI were observed |  |  | 
2 | C[C@]12CC[C@H]3[C@@H](CCC4=CC(=O)CC[C@@]43C)[C@@H]1CC[C@@H]2O [testosterone, Testosterone] |  |  |  | observed |  | upregulation of genes inside the SRGI were observed | 700 |  | 
3 | C[C@]12CCC(=O)C=C1CC[C@@H]1[C@@H]2[C@@H](O)C[C@]2(C=O)[C@@H](C(=O)CO)CC[C@@H]12 [ALD, Aldosterone] | 289 ± 36 | 20 ± 2 | 1.65 ± 0.28 | observed | 175.00 | upregulation of genes inside the SRGI were observed |  |  | 
4 | C[C@]12CC[C@@H]3c4ccc(O)cc4CC[C@H]3[C@@H]1CCC2=O [ESN, Estrone] |  |  |  |  |  | not when exposed to 17β-estradiol and estrone | 87.50 | No cross-reactivity was observed | 
5 | C[C@]12CC[C@@H]3c4ccc(O)cc4CC[C@H]3[C@@H]1CC[C@@H]2O [ESD, 17β-Estradiol] |  |  |  |  |  | not when exposed to 17β-estradiol and estrone |  |  | no impact on the sensor binding/unbinding
